Earlier results, collected in patent US20150110862A1, “Sweet Gum Fruit Extract as a Therapeutic Agent” (Board of Supervisors of Louisiana State University and …, priority 2007, published 2015).
≈ marks a conversion by molar mass, not a printed value.

Key:
[1] = test system: 39 human cancer cell lines; conditions: literature
two-stage carcinogenesis = conditions: literature
[2] = test system: UVB-radiation-induced photocarcinogenesis; conditions: oral administration, literature
[3] = test system: human prostate cancer PC3 cells; conditions: published articles

CC1(C)CCC2(C(=O)O)CCC3(C)C(=CC(=O)C4C5(C)CCC(=O)C(C)(C)C5CCC43C)C2C1 (centres unmarked) [3,11-dioxoolean-12-en-28-oic acid]
cytotoxicity against 39 human cancer cell lines [1]: weaker activity

CC1(C)CCC2(C(=O)O)CCC3(C)C(=CCC4C5(CO)CCC(O)C(C)(C)C5CCC43C)C2C1 (stereo not drawn) [3α,25-dihydroxyolean-12-en-28-oic acid]
cytotoxicity against 39 human cancer cell lines [1]: weaker activity

C=C(C)C1CCC2(C(=O)O)CCC3(C)C(CCC4C56CCC(O)(OC5)C(C)(C)C6CCC43C)C12 (stereo not drawn) [3β,25-epoxy-3α-hydroxylup-20(29)-en-28-oic acid]
anti-tumor activity, two-stage carcinogenesis assay (two-stage carcinogenesis): moderate inhibitory activities
tumor incidence and tumor multiplicity vs control group [2]: approximate halving of the tumor incidence and tumor multiplicity

C=C(C)[C@@H]1CC[C@]2(C(=O)O)CC[C@]3(C)[C@@H](CC[C@@H]4[C@@]5(C)CCC(=O)C(C)(C)[C@@H]5[C@H](O)C[C@]43C)[C@@H]12 [6β-hydroxy-3-oxolup-20 (29)-en-28-oic acid]
cytotoxicity against 39 human cancer cell lines [1]: weaker activity

CC(=O)OC[C@]12CC[C@@H](O)C(C)(C)[C@@H]1CC[C@]1(C)[C@@H]2CC=C2[C@@H]3CC(C)(C)CC[C@]3(C(=O)O)CC[C@]21C [Terpenoid 1, 25-acetoxy-3α-hydroxyolean-12-en-28-oic acid]
IC50 against human prostate cancer PC3 cells (reported) [3]: 5.9 µg/mL (≈ 11.5 µM)
cytotoxicity against 39 human cancer cell lines [1]: strong cytotoxicity
anti-tumor activity, two-stage carcinogenesis assay (two-stage carcinogenesis): moderate inhibitory activities
